Laboratory results reported in article PMC9959349, “Discovery of the 3-Amino-1,2,4-triazine-Based Library as Selective PDK1 Inhibitors with Therapeutic Potential in Highly Aggressive Pancreatic Ductal Adenocarcinoma” (International Journal of Molecular Sciences, 2023).

Assays:
[1] = test system: PSN-1 cells; experiment: ROS production (CM-H2DCFDA); type: cell-based, human; conditions: 5 µM test compounds, antimycin 3 µM as positive control
Description: Consistently, tested compounds, although to different extents, were effective in reducing total cellular sulfhydryl contents in PSN-1-treated cells (Figure 9B).
The production of ROS was measured in PSN-1 cells (10^4 per well) grown for 24 h in a 96-well plate in RPMI medium without phenol red (Sigma Aldrich, Germany). Cells were then washed with PBS and loaded with 10 μM 5-(and-6)-chloromethyl-2′,7′-dichlorodihydrofluorescein diacetate acetylester (CM–H2DCFDA) (Molecular Probes-Invitrogen, Eugene, OR, USA) for 45 min, in the dark. Afterward, cells were washed with PBS and incubated with tested compounds. Fluorescence increase was estimated utilizing the wavelengths of 485 nm (excitation) and 527 nm (emission) in a VICTOR X3 (PerkinElmer, USA) plate reader. Antimycin (3 μM, Sigma Aldrich), a potent inhibitor of Complex III in the electron transport chain, was used as the positive control.

[2] = test system: PSN-1 cells; experiment: Cellular lactate production; type: cell-based, human; conditions: IC50 concentrations
Description: (§1) Cells were treated with DAP or representative compounds at IC50 concentrations and the changes in OCR and in the intracellular lactate formation were monitored.
PSN-1 cells (2 × 10^5) were seeded in a six-well plate in a growth medium (4 mL). After 24 h, cells were incubated for 60 min with IC50 concentrations of tested compounds. Changes in lactate production were assessed via colorimetric microplate assay (Lactate assay kit®, Merk, St. Louis, MO, USA) according to the manufacturer’s instructions. The intracellular lactate concentration was detected by measuring the absorbance of each well at 570 nm, using a Bio-Rad 680 microplate reader.

[3] = test system: BxPC-3 cells; experiment: 3D spheroid cytotoxicity, acid phosphatase (APH) assay, BxPC-3; conditions: read-out: IC50 ±S.D. BxPC-3 (3D cytotoxicity); spheroids, 72 h, APH test
Description: (§2) The PDAC cancer spheroids were treated with tested compounds for 72 h, and cell viability was assessed by means of the acid phosphatase (APH) assay (Table 3).
(§3) An APH-modified assay was used for determining cell viability in 3D spheroids, as previously described [61]. Briefly, the pre-seeded spheroids were treated with fresh medium containing the compound to be studied at the appropriate concentration (range 2.5–200 μM). Triplicate cultures were established for each treatment. After 72 h, each well was treated with 100 μL of the assay buffer (0.1 M sodium acetate, 0.1% Triton-X-100, supplemented with ImmunoPure p-nitrophenyl phosphate; Sigma Chemical Co., Ltd.) and, following 3 h of incubation, 10 μL of 1 M NaOH solution was added. […] The mean absorbance for each drug dose was expressed as a percentage of the control untreated well absorbance (T/C) and plotted vs. drug concentration. […] The evaluation was based on means from at least four independent experiments.

[4] = test system: PSN-1 cells; experiment: Cell death induction, Hoechst 33258 staining; type: cell-based, human; conditions: 48 h, IC50 doses
Description: As a last mechanistic evaluation, the ability of selected compounds 5i and 6h to induce cancer cell death by means of apoptosis, was also assessed.
PSN-1 cells were seeded into 8-well tissue-culture slides (BD Falcon, Bedford, MA, USA) at 5 × 10^4 cells/well (0.8 cm^2). […] Samples were examined at 5× and 40× magnification in a Zeiss LSM 800 confocal microscope using the Zeiss ZEN 2.3 software system (Zeiss, Oberkochen, Germany).

[5] = Body weight changes of LLC-bearing mice; type: in vivo; conditions: LLC-bearing C57BL mice, 5i 20 mg kg−1 daily i.p.
[6] = test system: PSN-1 cells; experiment: 3D spheroid cytotoxicity, acid phosphatase (APH) assay, PSN-1; conditions: read-out: IC50 ±S.D. PSN-1 (3D cytotoxicity); spheroids, 72 h, APH test
Description: as §2, §3

[7] = test system: PSN-1 cells; experiment: Cellular oxygen consumption (Mito-ID Extracellular O2 Sensor Kit); type: cell-based, human; conditions: IC50 concentrations
Description: as §1
PSN-1 cells (2 × 10^5) were seeded in a six-well plate in growth medium (4 mL). After 24 h, cells were incubated for 60 min with IC50 concentrations of tested compounds. Subsequently, oxygen consumption was assessed by Mito-ID® Extracellular O2 Sensor Kit according to manufacturer’s instructions. Fluorescence was measured using a Tecan microplate reader (Ex 340–400 nm, Em 630–680 nm).

[8] = test system: caspase-3 and -8 in PSN-1 cells; experiment: Caspase-3 and -8 activity; type: cell-based, human; conditions: 24 h, IC50 doses
Description: Apoptotic cell death can be triggered by a mitochondria-mediated or mitochondrial-independent pathways. In the […], caspase-8 and caspase-3 play an essential role. […] Staurosporine (STS), an alkaloid inducing apoptosis through caspase-3 and -8 activation was used as a positive control. […] Caspase-3 and -8 cleavage reached values similar to that induced by the well-known caspase-dependent apoptosis inducer staurosporine (Figure 10C).
Protein aliquots (100 μg) were stained at 37 °C for 60 min with fluorescent caspase-3 (N-acetyl-Asp-Glu-Val-Asp-AMC, AMC = 7-amino-4-methylcoumarin) or caspase-8 (Ac-Val-Glu-Thr-Asp-AMC) substrates. Substrate hydrolysis was measured after 60 min by monitoring the release of AMC using a a Tecan microplate reader (excitation at 370 nm, emission at 460 nm).

[9] = test system: S232 PDH E1 alpha protein (PDHA1) phosphorylation in PSN-1 cells; experiment: Cellular PDH phosphorylation (ELISA); type: cell-based, human; conditions: 24 h, IC50 concentrations
Description: As a first step, the ability of representative derivatives to target PDK in intact cancer cells was assessed by evaluating their effect on PDH phosphorylation of PSN-1 cancer cells.
PSN-1 cells (2 × 10^5) were seeded in a six-well plate in growth medium (4 mL). After 24 h, cells were incubated for 24 h with IC50 concentrations of tested compounds. Subsequently, the phosphorylation level of S232 PDH E1 alpha protein (PDHA1) was assessed by ELISA Kit (Abcam) following the manufacturer’s instructions. The amount of phosphorylated S232 PDHA1 protein was detected by measuring the absorbance of each well at 600 nm, using a Bio-Rad 680 microplate reader.

[10] = test system: PSN-1 cells; experiment: Mitochondrial membrane potential (Mito-ID kit); type: cell-based, human; conditions: IC50 concentrations
Description: The ΔΨ was assayed using the Mito-ID® Membrane Potential Kit according to the manufacturer’s instructions (Enzo Life Sciences, Farmingdale, NY, USA) as previously described. Briefly, PSN-1 cells (8 × 10^3 per well) were seeded in 96-well plates; after 24 h, cells were washed with PBS and loaded with Mito-ID Detection Reagent for 30 min at 37 °C in the dark. Afterward, cells were incubated with tested compounds for 60 min. CCCP (Carbonyl cyanide 3-chlorophenyl-hydrazone) was used as the positive control. Fluorescence intensity was estimated using a VICTOR X3 (PerkinElmer, Waltham, MA, USA) plate reader at 490 (excitation) and 590 nm (emission).

[11] = biological target: recombinant human HSP90 (Homo sapiens, UniProt P07900); experiment: HSP90 inhibition assay (Transcreener ADP kit); type: biochemical; conditions: 1.5 µM compound (equivalent doses)
Description: The in vitro inhibitory activity of tested compounds on recombinant human HSP90 was assessed by The Transcreener™ ADP kit (Bellbrook Labs) according to the manufacturer’s protocol. Human recombinant HSP90 protein was incubated with tested compounds in the presence of 250 μM ATP at 37 °C for 30 min, 4°C for 30 min and ATPase activity was stopped via the addition of the stop and detect buffer. Following this, samples were incubated for 1 h at room temperature with the ADP2 Antibody and the ADP Alexa594 Tracer. The fluorescence intensity polarization of samples was measured with a Tecan plate reader (Tecan Infinite® M200). The evaluation was based on means from at least three independent experiments.

Cn1cc(-c2nnc(N)nc2-c2cn(C)c3ccc(F)cc23)c2ccccc21 [5i]
ROS basal level production / hydrogen peroxide formation [1]: even higher than that provoked by antimycin
lactate production [2]: more potent than DAP
IC50 [3]: 34.1 ± 1.5 µM
apoptosis induction (nuclear morphology) [4]: brightly stained nuclei and morphological features typical of cells undergoing apoptosis
body weight loss (in words) [5]: lower than that induced by cisplatin and gemcitabine
IC50 [6]: 4.9 ± 0.8 µM
cellular oxygen consumption (OCR) [7]: more effective than DAP
caspase-3 and -8 activation [8]: significantly activated
reduction in phospho-PDHA1 (S232) levels [9]: very similar to that exerted by the reference PDK inhibitor DAP
percentage of cells with hypopolarized mitochondrial membrane potential (in words) [10]: significantly increased
decrease of HSP90 catalytic activity [11]: 60–80%
